Data reported in ChEMBL document CHEMBL2380242, “Discovery of novel orally bioavailable GPR40 agonists” (Bioorg Med Chem Lett, 2013).
Active and inactive are the calls of the source. The rule behind the calls is not given here.

How the values were obtained:
[1] = system: Mus musculus; experiment: Antidiabetic activity in high fat feasted ICR mouse assessed as inhibition of blood glucose excursion at 50 mg/kg, po administered 15 mins prior to dextrose challenge measured for 120 mins by OGTT relative to control; format: functional
[2] = biological target: Free fatty acid receptor 1 (Rattus norvegicus) (UniProt Q8K3T4); experiment: Agonist activity at GPR40 in rat INS-1 cells assessed as glucose-stimulated insulin secretion relative to TAK-875; format: cell-based; conditions: INS1
Chain of Free fatty acid receptor 1 (Rattus norvegicus) (Q8K3T4 whole entry): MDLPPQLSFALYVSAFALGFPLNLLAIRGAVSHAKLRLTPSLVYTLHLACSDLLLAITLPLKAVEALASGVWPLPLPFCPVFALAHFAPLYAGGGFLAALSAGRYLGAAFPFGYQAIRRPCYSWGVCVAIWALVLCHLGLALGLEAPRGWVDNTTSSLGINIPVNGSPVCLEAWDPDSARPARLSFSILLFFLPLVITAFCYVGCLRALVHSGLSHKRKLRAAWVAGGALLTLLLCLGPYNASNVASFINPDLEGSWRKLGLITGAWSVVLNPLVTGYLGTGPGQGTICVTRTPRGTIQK

[3] = system: Cynomolgus monkey; experiment: Volume of distribution in cynomolgus monkey at 6 mg/kg, po; format: ADME, organism-based, Macaca fascicularis; set-up: dose 6 mg/kg, route oral; conditions: in vivo
[4] = Half life in beagle dog at 1 mg/kg, po; format: ADME, organism-based, Canis lupus familiaris; set-up: dose 1 mg/kg, route oral; conditions: in vivo
[5] = Half life in cynomolgus monkey at 6 mg/kg, po; format: ADME, organism-based, Macaca fascicularis; set-up: dose 6 mg/kg, route oral; conditions: in vivo
[6] = Oral bioavailability in rat at 5 mg/kg; format: ADME, organism-based; conditions: in vivo
[7] = AUC in beagle dog at 1 mg/kg, po; format: ADME, organism-based, Canis lupus familiaris; set-up: dose 1 mg/kg, route oral; conditions: plasma
[8] = Plasma clearance in cynomolgus monkey at 6 mg/kg, po; format: ADME, organism-based, Macaca fascicularis; set-up: dose 6 mg/kg, route oral
[9] = AUC in rat at 5 mg/kg, po; format: ADME, organism-based; set-up: dose 5 mg/kg, route oral; conditions: plasma
[10] = Plasma clearance in rat at 5 mg/kg, po; format: ADME, organism-based; set-up: dose 5 mg/kg, route oral
[11] = Half life in rat at 5 mg/kg, po; format: ADME, organism-based; set-up: dose 5 mg/kg, route oral; conditions: in vivo
[12] = AUC in cynomolgus monkey at 6 mg/kg, po; format: ADME, organism-based, Macaca fascicularis; set-up: dose 6 mg/kg, route oral; conditions: plasma
[13] = Cmax in beagle dog at 1 mg/kg, po; format: ADME, organism-based, Canis lupus familiaris; set-up: dose 1 mg/kg, route oral; conditions: in vivo
[14] = system: Rattus norvegicus; experiment: Volume of distribution in rat at 5 mg/kg, po; format: ADME, organism-based; set-up: dose 5 mg/kg, route oral; conditions: in vivo
[15] = Cmax in cynomolgus monkey at 6 mg/kg, po; format: ADME, organism-based, Macaca fascicularis; set-up: dose 6 mg/kg, route oral; conditions: in vivo
[16] = biological target: T1, Free fatty acid receptor 1 (Homo sapiens, UniProt O14842); experiment: Agonist activity at human GPR40 transfected in CHO cells by calcium flux assay relative to TAK-875; format: functional, cell-based
T1 sequence (O14842 whole entry): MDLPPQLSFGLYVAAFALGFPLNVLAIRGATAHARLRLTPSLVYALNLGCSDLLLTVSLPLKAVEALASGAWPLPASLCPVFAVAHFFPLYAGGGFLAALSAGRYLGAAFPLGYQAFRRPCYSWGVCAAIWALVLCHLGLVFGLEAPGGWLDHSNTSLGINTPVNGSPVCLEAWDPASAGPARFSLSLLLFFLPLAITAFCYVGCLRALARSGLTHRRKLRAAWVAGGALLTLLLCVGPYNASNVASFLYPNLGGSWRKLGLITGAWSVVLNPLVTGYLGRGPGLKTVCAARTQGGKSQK

[17] = biological target: T1, Free fatty acid receptor 1; experiment: Agonist activity at human GPR40 transfected in CHO cells by calcium flux assay; format: functional, cell-based
[18] = Cmax in rat at 5 mg/kg, po; format: ADME, organism-based; set-up: dose 5 mg/kg, route oral; conditions: in vivo
[19] = biological target: Free fatty acid receptor 1 (Rattus norvegicus, UniProt Q8K3T4); experiment: Agonist activity at GPR40 in rat INS-1 cells assessed as glucose-stimulated insulin secretion; format: cell-based, INS1
Chain of Free fatty acid receptor 1 (Rattus norvegicus, UniProt Q8K3T4) (Q8K3T4 whole entry): as the sequence (Q8K3T4 whole entry) above

[20] = system: Rhesus monkey; experiment: Antidiabetic activity in obese type 2 diabetic rhesus monkey model assessed as inhibition of blood glucose excursion at 20 mg/kg, po administered 1 to 2 hrs prior to dextrose challenge measured for 60 mins by IVGTT relative to control; format: functional; conditions: Macaca mulatta
[21] = system: Rhesus monkey; experiment: Antidiabetic activity in obese type 2 diabetic rhesus monkey model assessed as inhibition of blood glucose excursion at 20 mg/kg, po administered 1 to 2 hrs prior to dextrose challenge measured for 120 mins by IVGTT relative to control; format: functional; conditions: Macaca mulatta
[22] = system: Mus musculus; experiment: Antidiabetic activity in high fat feasted ICR mouse assessed as reduction of blood glucose excursion at 20 mg/kg, po administered 15 mins prior to dextrose challenge measured for 120 mins by OGTT; format: functional, organism-based; set-up: dose 20 mg/kg
[23] = system: Mus musculus; experiment: Antidiabetic activity in high fat feasted ICR mouse assessed as inhibition of blood glucose excursion administered 15 mins prior to dextrose challenge measured for 120 mins by OGTT relative to control; format: functional
[24] = system: Canis familiaris; experiment: Volume of distribution in beagle dog at 1 mg/kg, po; format: ADME, organism-based, Canis lupus familiaris; set-up: dose 1 mg/kg, route oral; conditions: in vivo
[25] = system: Rhesus monkey; experiment: Antidiabetic activity in obese type 2 diabetic rhesus monkey model assessed as inhibition of blood glucose excursion at 6 mg/kg, po administered 1 to 2 hrs prior to dextrose challenge measured for 120 mins by IVGTT relative to control; format: functional; conditions: Macaca mulatta
[26] = Inhibition of CYP450 (unknown origin); format: ADME, Homo sapiens
[27] = Lipophilicity, log D of the compound; format: physicochemical; conditions: octanol/water
[28] = system: Rhesus monkey; experiment: Antidiabetic activity in obese type 2 diabetic rhesus monkey model assessed as inhibition of blood glucose excursion at 6 mg/kg, po administered 1 to 2 hrs prior to dextrose challenge measured for 60 mins by IVGTT relative to control; format: functional; conditions: Macaca mulatta
[29] = Plasma clearance in beagle dog at 1 mg/kg, po; format: ADME, organism-based, Canis lupus familiaris; set-up: dose 1 mg/kg, route oral
[30] = biological target: T2, Free fatty acid receptor 4 (Homo sapiens) (UniProt Q5NUL3); experiment: Agonist activity at GPR120 (unknown origin) up to 10 uM
T2 sequence (whole entry): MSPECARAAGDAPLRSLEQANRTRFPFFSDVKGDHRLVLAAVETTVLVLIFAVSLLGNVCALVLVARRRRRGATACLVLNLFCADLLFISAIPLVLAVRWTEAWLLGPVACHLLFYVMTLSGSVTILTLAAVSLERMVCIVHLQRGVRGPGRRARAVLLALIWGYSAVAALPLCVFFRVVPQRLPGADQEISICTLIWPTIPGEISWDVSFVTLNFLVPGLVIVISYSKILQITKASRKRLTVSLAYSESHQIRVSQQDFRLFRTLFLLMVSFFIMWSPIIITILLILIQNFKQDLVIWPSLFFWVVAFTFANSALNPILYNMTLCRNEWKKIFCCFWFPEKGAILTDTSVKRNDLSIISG

[31] = biological target: T3, Free fatty acid receptor 3 (Homo sapiens) (UniProt O14843); experiment: Agonist activity at GPR41 (unknown origin) up to 10 uM
T3 sequence (whole entry): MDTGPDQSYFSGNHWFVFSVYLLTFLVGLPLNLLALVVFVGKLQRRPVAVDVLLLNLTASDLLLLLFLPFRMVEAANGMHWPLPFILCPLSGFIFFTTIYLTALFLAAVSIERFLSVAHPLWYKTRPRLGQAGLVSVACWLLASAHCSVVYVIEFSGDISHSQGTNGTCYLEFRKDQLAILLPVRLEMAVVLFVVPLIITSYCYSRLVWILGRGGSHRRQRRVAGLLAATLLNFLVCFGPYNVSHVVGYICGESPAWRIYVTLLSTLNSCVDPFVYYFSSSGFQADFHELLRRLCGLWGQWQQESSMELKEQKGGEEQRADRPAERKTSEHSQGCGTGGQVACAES

[32] = biological target: T4, Free fatty acid receptor 2 (Homo sapiens) (UniProt O15552); experiment: Agonist activity at GPR43 (unknown origin) up to 10 uM
T4 sequence (whole entry): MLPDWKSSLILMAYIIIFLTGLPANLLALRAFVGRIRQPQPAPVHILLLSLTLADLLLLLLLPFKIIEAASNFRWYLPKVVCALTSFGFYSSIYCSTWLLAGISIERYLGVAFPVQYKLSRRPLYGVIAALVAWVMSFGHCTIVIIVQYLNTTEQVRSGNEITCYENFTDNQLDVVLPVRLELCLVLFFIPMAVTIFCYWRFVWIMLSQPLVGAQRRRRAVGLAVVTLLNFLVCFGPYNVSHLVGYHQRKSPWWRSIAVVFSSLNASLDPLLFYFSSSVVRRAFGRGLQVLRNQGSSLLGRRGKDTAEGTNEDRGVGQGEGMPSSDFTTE

SMILES | inhibition in vivo at 50 mg/kg [1] | Emax [2] | Vd [3] | half-life [4] | half-life [5] | AUC [7] | CL/F [8] | AUC [9] | CL/F [10] | half-life [11] | AUC [12] | Cmax [13] | Vd [14] | Cmax [15] | Emax [16] | EC50 [17] | Cmax [18] | EC50 [19] | other results
O=C(O)C[C@@H]1COc2cc3c(cc21)OC[C@@H](c1cccc(C(F)(F)F)c1)O3 | 13.3% | 43.6% | 2.38 L/kg | 19.1 h | 16.4 h | 47400 ng·h/mL | 1.67 mL/min/kg | 427000 ng·h/mL | 0.167 mL/min/kg | 16.1 h | 54700 ng·h/mL | 2580 ng/mL | 0.23 L/kg | 7700 ng/mL | 99.5% | 11.3 nM | 19400 ng/mL | – | bioavailability [6]: 100%
Cc1cc(OCCCS(C)(=O)=O)cc(C)c1-c1cccc(COc2ccc3c(c2)OC[C@H]3CC(=O)O)c1 | – | – | – | – | – | – | – | – | – | – | – | – | – | – | – | – | – | 93 nM | inhibition in vivo at 20 mg/kg [20]: 14.7%; inhibition in vivo at 20 mg/kg [21]: 15%; Activity [22]: Active
Cc1ccccc1-c1cccc([C@H]2COc3cc4c(cc3O2)OC[C@H]4CC(=O)O)c1 | – | – | – | – | – | – | – | – | – | – | – | – | – | – | 91% | 19.1 nM | – | – | inhibition (INH) [23]: 9.7%
O=C(O)C[C@@H]1COc2cc3c(cc21)OC[C@@H](c1cccc(Br)c1)O3 | 4.9% | 40% | 1.02 L/kg | 26.4 h | 18 h | 30600 ng·h/mL | 0.667 mL/min/kg | 530000 ng·h/mL | 0.117 mL/min/kg | 26.8 h | 136000 ng·h/mL | 2270 ng/mL | 0.25 L/kg | 5360 ng/mL | 120% | 13.5 nM | 17800 ng/mL | 77 nM | Vd [24]: 0.93 L/kg; inhibition in vivo at 6 mg/kg [25]: 24.4%; IC50 [26]: > 50000 nM; logD [27]: < 3; inhibition in vivo at 6 mg/kg [28]: 32.1%; CL/F [29]: 0.5 mL/min/kg; Activity [30]: inactive; Activity [31]: inactive; Activity [32]: inactive
